What was measured:
C32 (melanoma cancer) = test: Sub-cutaneous melanoma cancer model; assay type: in vivo, mice; conditions: for T/C index: three times a week
Experimental: (§1) Three types of results were obtained with in vivo anti-tumor pharmacology: 1) the cumulative toxicity of chemotherapeutic administrations through recording the weights of the tumor-bearing mice during treatment, 2) the actual anti-tumor effect exerted at tumor growth level. If the tumor models are grafted subcutaneously (s.c.), tumor size is measured three times a week by means of a caliper and expressed as an area (mm^2) by multiplying together the two largest perpendicular diameters, and 3) the gain in survival for the animals treated, which is evaluated by means of the T/C index. This index is the ratio between the median survival time of the group of treated animals (T) and that of the control group. The drug is considered to be active if the T/C value is above 130% (P<0.05), and toxic for a value lower than 70%.
(§2) The antitumoral activity of compound B was evaluated in different xenografted models: sub-cutanous model: MCF-7-TD5 (breast cancer) and C32 (melanoma cancer) and orthotopic model: A549 (lung cancer).
Experimental melanomas were set up in mice by painting their skins with a carcinogen. These experimental melanomas display certain morphological characteristics close to those of human melanomas but are less aggressive biologically. Compound B was assayed at DMT/4 (20 mg/kg), DMT/8 (10 mg/kg) and DMT/16 (5 mg/kg) three times a week. […] Indeed the T/C index values measured were respectively 95%, 107% and 81%.

[1] = tested on: MCF-7-TD5 (breast cancer); test: Sub-cutaneous xenograft breast cancer model; assay type: in vivo, mice
Experimental: as §1, §2
The MCF-7-TD5 model described herein is a […] form of MCF-7 transfected with v-Ha-ras oncogene and with a neomycin-resistance gene. Compound B was assayed at MTD/8 (10 mg/kg) and MTD/16 (5 mg/kg) five times a week.
After s.c. injection of MCF-7-TD5 into untreated female nu/nu mice, the MCF-7 TD5 produced tumors after latency periods of 7 to 18 weeks. […] No oestradiol was used during the experiments described in this example.

A549 (lung cancer) = test: Orthotopic lung cancer model; assay type: in vivo, mice; conditions: for T/C index: A549 orthotopic, three times a week
Experimental: as §1, §2
Lung cancer is the leading cause of cancer deaths worldwide. Most patients die of progressive metastatic disease despite aggressive local and systemic therapies. The pathogenesis of lung cancer remains highly elusive due to its aggressive biologic nature and considerable heterogeneity, as compared to other cancers. Orthotopic lung cancer models are described in the literature using endobronchial, intrathoracic or intravenous injection of tumor cell suspensions and by surgical implantation of fresh tumor tissue. The tumor cells are directly injected into the lung of nude mice. The advantages of orthotopic models include improved tumor take and enhanced invasive and metastatic properties.
Compound B was assayed at DMT/2 (40 mg/kg), DMT/4 (20 mg/kg) and DMT/8 (10 mg/kg) three times a week. […] These values are statistically significant.
FIG. 21 represents the death rate of nine mice in each of the control and test groups during the experiment. Kaplan-Meier statistical analysis was used. The statistics value underlines the general fit of the test control in comparison with the general fit of the control group. […] The level significance was p<0.05.

[2] = tested on: PC-3 orthotopic xenograft; test: Orthotopic refractory prostate cancer model; assay type: in vivo, nude mice; conditions: from 7th day post-graft
Experimental: as §1
(§3) In addition to the xenografted models of Example 6, the antitumoral activity of compound B was evaluated in orthotopic xenografted models PC3 (Prostate) and Capan2 (Pancreas).
Compound B was evaluated in vivo on highly invasive orthotopic PC-3 refractory prostate cancer model by measurement of T/C index, as described in Example 6 of the specification.

[3] = tested on: Capan-2 orthotopic xenograft; test: Orthotopic pancreatic cancer model; assay type: in vivo, nude mice
Experimental: as §1, §3
Compound B was further evaluated on in vivo orthotopic Capan-2 pancreatic cancer model by measurement of T/C index, as described in Example 6 of the specification.

Q: `CC1CC2(NC(=O)CS2)C2(O)OC3CC4(CO)C(CCC5C4CCC4(C)C(C6=CC(=O)OC6)CCC54O)CC3OC2O1` (centres unmarked) [Compound B] was tested. Which T/C index (C32 (melanoma cancer); C32, 21×5 mg/kg) did it give?
A: The T/C index was 81%.

Q: What about the T/C index (C32 (melanoma cancer); C32, 25×20 mg/kg) of the same compound?
A: The T/C index was 95%.

Q: And the T/C index (C32 (melanoma cancer); C32, 28×10 mg/kg)?
A: The T/C index was 107%.

Q: And the tumor area (C32 (melanoma cancer); C32-tumor bearing mice, most important effect at 10 mg/kg)?
A: Its tumor area is “decreased the tumor area”.

Q: What about the “weight of C32-tumor bearing mice (toxic side effects)” value (C32 (melanoma cancer); constant administration, 20, 10 and 5 mg/kg) of the same compound?
A: The value was “did not loose any significant weight”.

Q: What about the “survival periods of MCF-7-TD5 tumor bearing mice” value ([1]; 60 administrations of 10 mg/kg and 5 mg/kg) of the same compound?
A: The value was “not sufficient to significantly increase the survival periods”.

Q: And the MCF-7-TD5 tumor growth ([1]; 60 administrations of 10 mg/kg and 5 mg/kg, five times a week)?
A: Its MCF-7-TD5 tumor growth is “significantly decreased MCF-7-TD5 tumor growth”.

Q: What about the “weight of MCF-7-TD5 tumor bearing mice (toxic side effects)” value ([1]; constant administrations, 10 mg/kg and 5 mg/kg) of the same compound?
A: The value was “did not lose any significant weight”.

Q: What about the T/C index (A549 (lung cancer); 3×40 mg/kg) of the same compound?
A: Its T/C index is 124%.

Q: And the T/C index (A549 (lung cancer); 7×20 mg/kg)?
A: The T/C index was 152%.

Q: And the T/C index (A549 (lung cancer); 10×10 mg/kg)?
A: The T/C index was 186%.

Q: And the “weight of A549-tumor bearing mice (toxic side effects)” value (A549 (lung cancer); constant administrations, 40, 20 and 10 mg/kg)?
A: Its value is “did not lose any significant weight”.

Q: And the “weight of A549-tumor bearing mice” value (A549 (lung cancer); first week of administration at 40 mg/kg)?
A: The value was “significant loss of weight”.

Q: What about the T/C value ([2]; i.p. DMT/4 (20 mg/kg), 5ix6w) of the same compound?
A: The T/C value was 177%.

Q: What about the T/C value ([2]; per os DMT/2 (40 mg/kg), 5dx6w) of the same compound?
A: Its T/C value is 132%.

Q: What about the T/C value ([3]; i.p. DMT/4 (20 mg/kg), 3ix5w, from 21st day post-graft) of the same compound?
A: Its T/C value is 129%.

Q: What about the T/C value ([3]; i.p. DMT/8 (10 mg/kb), 5ix8w, from 14th day post-graft) of the same compound?
A: Its T/C value is 127%.

From patent US7981875B2, “2″ oxo-voruscharin and derivatives thereof” (priority 2002, dated 2011)
